In patent US7119213B2, “Pharmacologically active isolated or purified dauer pheromone compound for controlling aging and stress and method for isolating and characterizing the same” (priority 2002, dated 2006):

System: C. elegans
Assay: Dauer inducing activity assay (dauer test on worms grown in S medium)
Type: in vivo
Experimental: To examine whether this ethanol extract (A) can induce dauer larva phase, dauer test is performed on the worms that had been grown in the S medium.
Briefly, the dried A was dissolved in double distilled water and extracted with the equal volume of ethyl acetate. This extraction procedure was repeated 5 times.
After confirming the dauer inducing activity of B, extracts obtained by the above-described process are loaded onto a silica-gel absorption column which has been equilibrated with hexane: ethyl acetate: methanol=7:7:1. An active form of dauer pheromone (C) that were adsorbed onto the column was eluted with methanol.
To further purify C, HPLC separation is carried out using amine column. Briefly, the fraction C is dissolved in methanol and diluted with double distilled water (MeOH: ddH2O=1:1). This solution containing C is loaded onto the amine column, which is equilibrated with isopropanol solution (isopropanol: water=1:1). A dauer pheromone fraction bound to the column (Fraction D) was eluted with a gradient solution of the same solvent.
Table 5 outlines the result of dauer inducing assay using the active fractions D from the amine column chromatography. Finally, a dauer pheromone (E) is completely isolated and purified refined by size exclusion column chromatography using methanol as an eluent solution.
The pure dauer pheromone characterized by the above described procedures is defined as the structural formula I, and its chemical formula is 6-(3,5-dihydroxy-6-methyl-tetrahydro-pyran-2-yloxy)-heptanoic acid or its sodium salt.

With CC(CCCCC(=O)O)OC1OC(C)C(O)CC1O (stereo not drawn) [W251 column fraction (purified form), 6-(3,5-dihydroxy-6-methyl-tetrahydro-pyran-2-yloxy)-heptanoic acid] as the compound, how does the “Formation of dauer larva stage (%)” value (dauer test on C. elegans) read?
The value was 100%.

What about the “Population in dauer larva stage” value (number of worms in dauer larva stage in the dauer test) of the same compound?
Its value is 62.

What about the “Induction of dauer phase (in words)” value (pure pheromone added onto the media) of the same compound?
The value was “markedly induce the worm into dauer phase”.
